Measured values from ChEMBL document CHEMBL1146402, “New Oxygenated Sesquiterpenes from the Indonesian Soft Coral Nephthea chabrolii” (J Nat Prod, 1997).
Values after ≈ are worked out from the molar mass of the structure shown.

Key:
Spodoptera littoralis [1] = assay: Insecticidal activity in Spodoptera littoralis assessed as inhibition of larval growth at 530 ppm after 6 days by chronic feeding experiment; assay type: functional; settings: 144 h
Spodoptera littoralis [2] = assay: Insecticidal activity in Spodoptera littoralis assessed as inhibition of larval growth after 6 days by chronic feeding experiment; assay type: functional, organism-based

CC1=C2C[C@H](C(C)(C)O)CC[C@H](C)[C@@H]2CC1=O [HYDROXYCOLORENONE] showed an inhibition at 530 ppm (Spodoptera littoralis [1]) of 90%, an EC50 (Spodoptera littoralis [2]) of 8.8 ppm and an LC50 (Spodoptera littoralis [2]; Spodoptera littoralis, 144 h) of 453 µg/mL (≈ 1920 µM).
